Source: patent US20030100109A1, “Methods and compositions for in vitro germination and propagation of polygonatum cirrhifolium royle” (priority 2001, published 2003)
Values joined by “and” are separate entries in the source; they are usually repeats but may differ in a detail not shown here. Equal values may be shown once.

Columns and labels:
[1] = system: Polygonatum cirrhifolium Royle secondary explants; experiment: De novo axillary bud differentiation and release of foliage leaves on MS medium with GA3, BAP and NAA; assay type: in vivo; details: for Percentage axillary buds producing leaves / Percentage secondary-explants producing axillary buds / Mean number of axillary buds per secondary explant: MS medium, after 16 weeks of culture; for Mean number of axillary buds per secondary explant: ± SE
Source text: Cultures were maintained at 50-60% RH. Plants were subcultured every four weeks in both sets of experiments on the same media formulations. Observations were made periodically but final data was compiled after 16 weeks of culture. In still another embodiment of the present invention, results in table 4 and 5 show the influence of various concentrations and combinations of BAP, NAA and GA3 on the in vitro release of epicotyl dormancy indicated by the release of rosette of leaves and induction of de novo axillary bud differentiation and their sprouting at 20-24° C. under 10-16 hr photoperiod (2000-3500 lux) at 50-60% of RH. […] Each treatment consisted of 24 cultures. These were incubated at 20° C. under 16 hr photoperiod (2000 lux) at 60% RH. […] There is a concomitant increase in the elicitation of response with the increasing concentrations of GA3.

[2] = system: Polygonatum cirrhifolium Royle seeds; experiment: Induction of germination (hypocotyl emergence) on modified MS medium with GA3 at 30° C. in dark; assay type: in vivo; details: modified MS culture medium; for Percent germination: mean ± S.E.
Experimental: Ripe purplish berries from plants grown in the wild were collected and dehydrated for 15 days at room temperature (29° C.±2° C.). Seeds were collected from dehydrated berries and washed in tap water with 1-2 drops of Tween-20™ for 2 hours and rinsed three times in distilled water. Seeds were then surface sterilized with 0.1% mercuric chloride (HgCl2) for 3 minutes. Mercuric chloride was removed by washing seeds four times in sterile distilled water. Sterilized, rinsed seeds were placed on semi-solid culture medium in sterile disposable plastic Petri plates (10 cm×2 cm). Macro and micro nutrients in the basal medium were that of Murashige and Skoog's (Murashige, T. and Skoog, F. […]. Physiol Plant 15: 433 -497) but modified to contain 2.2 g/L NH4NO3, 2.0 g/L KNO3, 0.44 g/l CaCl2.2H2O, 0.37 g/L MgSO4.7H20, 0.17 g/L KH2PO4, 37.25 mg/L Na2 EDTA, 27.8 mg/L FeSO4.7H20, 0.83 mg/L KI, 6.2 mg/L H3BO3, 22.3 mg/L MnSO4.4H20, 8.6 mg/L ZnSO4.7H20, 0.25 mg/L Na2 MoO4.2H20, 0.025 mg/L CuSO4.5H2O, 0.025 mg/L CoCl2.6H20. This medium was supplemented with 250 mg/L myo-inosital, 0.5 mgl/l nicotinic acid, 0.5 mg/L pyridoxine HCl, 3 mg/L thiamine HCl, 2 mg/L glycine, 30 g/L sucrose, 7.5 g/L agar and 2, 10, 25, and 50 mg/L gibberellic acid. The pH of the medium was adjusted to 5.8 before adding agar. Medium was sterilized at 121° C. (15 lb. psi pressure) for 20 minutes. […] Seeds with emerged hypocotyl were transferred under aseptic conditions to the above defined basal culture medium containing gibberellic acid at 5, 25, 50 and 100 mg/L. Transferred plants were incubated in an environment having 8-16-hr days under about 2000 lux of light and about 8-16-hr nights in total darkness at a constant temperature of 20° C. ([…]) and at 50-60% RH. Illumination was provided by 40-watt cool, white fluorescent tubes. Germination synchronization as indicated by differentiated epicotyl with emergent coleoptile and radicle was recorded on daily basis. Tables 1 and 2 show the induction of germination as indicated by the emergence of hypocotyl at temperature of 30° C. (±2° C.; dark; RH 50-60%) and diurnal temperature of 30/20° C. (±2° C.; dark; RH 50-60%). Experiment consisted of 4 treatments in the form of varying levels of GA3 (2, 10, 25 and 50 mg/L) supplemented to culture medium consisting of 2.2 g/L NH4NO3, 2.0 g/L KNO3, 0.44 g/l CaCl2.2H2O, 0.37 g/L MgSO4.7H20, 0.17 g/L KH2PO4, 37.25 mg/L Na2 EDTA, 27.8 mg/L FeSO4.7H20, 0.83 mg/L KI, 6.2 mg/L H3BO3, 22.3 mg/L MnSO4.4H20, 8.6 mg/L ZnSO4.7H20, 0.25 mg/L Na2 MoO4.2H20, 0.025 mg/L CuSO4.5H2O, 0.025 mg/L CoCl2.6H20, 250 mg/L myo-inositol, 0.5 mg/L nicotinic acid, 0.5 mg/L pyridoxine HCl, 3 mg/L thiamine HCl, 2 mg/L glycine, 30 g/L sucrose and 7.5 g/L agar. Each treatment consisted of 15 replicates with 5 seeds in each. These were incubated at a constant temperature of 30° C. under continuous darkness at a RH of 60%. With the increase in GA3 concentration, there is concomitant increase in germination (Table 1). Maximum germination of 98.53% was obtained at 25 mg/L of GA3. Germination extended from 24-61 days (maximum duration) at 2 mg/L of GA3 and 7-23 days (minimum duration) at 50 mg/L of GA3 respectively.

[3] = GA3 1. mg/L in combination and 1.0 mg/L of NAA
[4] = GA3 5. mg/L in combination and 1.0 mg/L of NAA
[5] = GA3 10. mg/L in combination and 1.0 mg/L of NAA
[6] = GA3 15. mg/L in combination and 1.0 mg/L of NAA
[7] = GA3 20. mg/L in combination and 1.0 mg/L of NAA

## C=C1C[C@]23C[C@@]1(O)CC[C@H]2[C@@]12C=C[C@H](O)[C@@](C)(C(=O)O1)[C@H]2[C@@H]3C(=O)O [GA3, gibberellic acid]
[1]; [3]
  Percentage axillary buds producing leaves: 37.03%
  Percentage secondary-explants producing axillary buds: 16.67%
  Mean number of axillary buds per secondary explant: 2.70 ± 0.70
[1]; GA3 1. mg/L in combination and 1.0 mg/L of NAA, remark wraps over r12-r14: Epicotylar bulge swells forms rhizomatous base
  Remarks: Epicotylar bulge
[1]; [4]
  Percentage axillary buds producing leaves: 46.58— %
  Percentage secondary-explants producing axillary buds: 70.83%
  Mean number of axillary buds per secondary explant: 6.44 ± 1.04
[1]; [5]
  Percentage axillary buds producing leaves: 66.22%
  Percentage secondary-explants producing axillary buds: 87.50%
  Mean number of axillary buds per secondary explant: 9.06 ± 2.00
[1]; [6]
  Percentage axillary buds producing leaves: 77.12%
  Percentage secondary-explants producing axillary buds: 100.00%
  Mean number of axillary buds per secondary explant: 11.67 ± 1.96
[1]; [7]
  Percentage axillary buds producing leaves: 97.03%
  Percentage secondary-explants producing axillary buds: 100.00%
  Mean number of axillary buds per secondary explant: 8.96 ± 2.01
[1]; GA3 20. mg/L in combination and 1.0 mg/L of NAA, remark wraps over r18-r20: Rhizomatous base, callus induction
  Remarks: Rhizomatous
[2]; GA3 2 mg/L
  Duration of germination: 24 to 61 days
  Percent germination: 23.69 ± 7.04 %
[2]; GA3 10 mg/L
  Duration of germination: 19 to 53 days
  Percent germination: 66.18 ± 4.77%
[2]; GA3 25 mg/L
  Duration of germination: 11 to 30 days
  Percent germination: 98.53% and 98.53 ± 3.82%
[2]; GA3 50 mg/L
  Duration of germination: 7 to 23 days
  Percent germination: 97.11 ± 4.01%
